Measurements reported in PubChem BioAssay AID248 (DTP/NCI, 2004).
Where “and” joins values, the source holds several entries; their conditions need not be identical. Equal entries are not always repeated. Inconclusive results and toxic doses are left out. Cut-off read from the data, not from the text of the source: active = T/C of 150% or more; inactive = T/C below 125%.

System: L1210 leukemia ip in BDF1 mice, survival T/C
Assay: NCI In Vivo Anticancer Drug Screen. Data for tumor model L1210 Leukemia (intraperitoneal) in B6D2F1 (BDF1) mice
Conditions: endpoint: mean survival time, higher = longer survival
In short: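 Ratio derived from survival: compound-dosed mice over vehicle-dosed mice, all bearing a transplantable tumor.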

[1] = dose: 100.0 mg/kg/injection, schedule: Q01DX009 (ip), vehicle: saline with Tween-80
[2] = dose: 100.0 mg/kg/injection, schedule: Q04DX003 (ip), vehicle: saline with Tween-80
[3] = dose: 200.0 mg/kg/injection, schedule: Q01DX009 (ip), vehicle: saline with Tween-80
[4] = dose: 100.0 mg/kg/injection, schedule: Q04DX002 (ip), vehicle: Klucel (hydroxypropylcellulose) (HPC)
[5] = dose: 200.0 mg/kg/injection, schedule: Q04DX002 (ip), vehicle: Klucel (hydroxypropylcellulose) (HPC)
[6] = dose: 200.0 mg/kg/injection, schedule: Q04DX003 (ip), vehicle: saline with Tween-80
[7] = dose: 400.0 mg/kg/injection, schedule: Q01DX009 (ip), vehicle: saline with Tween-80
[8] = dose: 400.0 mg/kg/injection, schedule: Q04DX003 (ip), vehicle: saline with Tween-80
[9] = dose: 100.0 mg/kg/injection, schedule: Q01DX001 (ip), vehicle: carboxymethylcellulose (CMC)
[10] = dose: 200.0 mg/kg/injection, schedule: Q01DX001 (ip), vehicle: carboxymethylcellulose (CMC)
[11] = dose: 400.0 mg/kg/injection, schedule: Q01DX001 (ip), vehicle: carboxymethylcellulose (CMC)

Measured: T/C

O=C(C=C(C(F)(F)F)C(F)(F)F)c1cccs1
inactive: dose: 3.12 mg/kg/injection, schedule: Q01DX009 (ip), vehicle: saline 101 % of control | dose: 6.25 mg/kg/injection, schedule: Q01DX009 (ip), vehicle: saline 101 % of control | dose: 12.5 mg/kg/injection, schedule: Q01DX009 (ip), vehicle: saline 101 % of control | dose: 12.5 mg/kg/injection, schedule: Q04DX003 (ip), vehicle: saline 93 % of control | dose: 25.0 mg/kg/injection, schedule: Q01DX009 (ip), vehicle: saline 110 % of control | dose: 25.0 mg/kg/injection, schedule: Q04DX003 (ip), vehicle: saline 97 % of control | dose: 50.0 mg/kg/injection, schedule: Q04DX003 (ip), vehicle: saline 93 % of control | dose: 100.0 mg/kg/injection, schedule: Q04DX003 (ip), vehicle: saline 98 % of control

O=P(O)(Nc1ccccc1)Nc1ccccc1
inactive: dose: 100.0 mg/kg/injection, schedule: Q04DX002 (ip), vehicle: saline with Tween-80 113 % of control | dose: 200.0 mg/kg/injection, schedule: Q04DX002 (ip), vehicle: saline with Tween-80 103 % of control | dose: 400.0 mg/kg/injection, schedule: Q04DX002 (ip), vehicle: saline with Tween-80 113 % of control

Cc1ccc(C(=O)C2CC2)cc1C
inactive: dose: 50.0 mg/kg/injection, schedule: Q01DX009 (ip), vehicle: saline with Tween-80 100 % of control | [1] 91 % of control | [2] 98 % of control | [3] 91 % of control | dose: 202.0 mg/kg/injection, schedule: Q04DX003 (ip), vehicle: saline with Tween-80 107 % of control

CCOC(=O)/C=C\CC(O)CC (centres undefined)
inactive: dose: 100.0 mg/kg/injection, schedule: Q01DX009 (ip), vehicle: Klucel (hydroxypropylcellulose) (HPC) 105 % of control | dose: 100.0 mg/kg/injection, schedule: Q04DX003 (ip), vehicle: Klucel (hydroxypropylcellulose) (HPC) 98 % of control | dose: 200.0 mg/kg/injection, schedule: Q01DX009 (ip), vehicle: Klucel (hydroxypropylcellulose) (HPC) 105 % of control | dose: 200.0 mg/kg/injection, schedule: Q04DX003 (ip), vehicle: Klucel (hydroxypropylcellulose) (HPC) 104 % of control | dose: 400.0 mg/kg/injection, schedule: Q01DX009 (ip), vehicle: Klucel (hydroxypropylcellulose) (HPC) 118 % of control | dose: 400.0 mg/kg/injection, schedule: Q04DX003 (ip), vehicle: Klucel (hydroxypropylcellulose) (HPC) 114 % of control

CCCCCCCCCCCC(N)=O
inactive: dose: 100.0 mg/kg/injection, schedule: Q01DX001 (ip), vehicle: other 104 % of control | [4] 104 % of control | dose: 200.0 mg/kg/injection, schedule: Q01DX001 (ip), vehicle: other 93 % of control | [5] 110 % of control | dose: 400.0 mg/kg/injection, schedule: Q01DX001 (ip), vehicle: other 96 % of control | dose: 400.0 mg/kg/injection, schedule: Q04DX002 (ip), vehicle: Klucel (hydroxypropylcellulose) (HPC) 93 % of control

O=c1c(O)c(-c2ccc(Cl)cc2)oc2ccccc12
inactive: dose: 50.0 mg/kg/injection, schedule: Q01DX001 (ip), vehicle: saline 87 % of control | dose: 100.0 mg/kg/injection, schedule: Q01DX001 (ip), vehicle: saline 93 % of control | dose: 200.0 mg/kg/injection, schedule: Q01DX001 (ip), vehicle: saline 93 % of control | dose: 400.0 mg/kg/injection, schedule: Q01DX001 (ip), vehicle: saline 98 % of control

O=C(O)CSC(=S)N1CCOCC1
inactive: dose: 100.0 mg/kg/injection, schedule: Q01DX001 (ip), vehicle: saline with Tween-80 91 % of control | dose: 200.0 mg/kg/injection, schedule: Q01DX001 (ip), vehicle: saline with Tween-80 88 % of control | dose: 400.0 mg/kg/injection, schedule: Q01DX001 (ip), vehicle: saline with Tween-80 94 % of control

COc1ccc2c(c1)c1c(C)c3cnccc3c(C)c1n2CCCN1C(=O)c2ccccc2C1=O
inactive: dose: 50.0 mg/kg/injection, schedule: Q04DX003 (ip), vehicle: saline with Tween-80 94 % of control | [1] 96 % of control | [2] 92 % of control | [3] 101 % of control | [6] 93 % of control | dose: 400.0 mg/kg/injection, schedule: Q01DX001 (oral), vehicle: saline with Tween-80 110 % of control | [7] 101 % of control | [8] 94 % of control | dose: 800.0 mg/kg/injection, schedule: Q01DX001 (oral), vehicle: saline with Tween-80 108 % of control | dose: 1600.0 mg/kg/injection, schedule: Q01DX001 (oral), vehicle: saline with Tween-80 112 % of control

COc1ccc(C(O)c2ccccn2)cc1 (centres undefined)
inactive: [2] 90 % of control | [6] 98 % of control | [8] 95 % of control

COCCCNP1(=O)OCC(C)([N+](=O)[O-])CO1 (centres undefined)
inactive: dose: 50.0 mg/kg/injection, schedule: Q01DX001 (ip), vehicle: carboxymethylcellulose (CMC) 100 % of control | [9] 94 % of control | [10] 94 % of control | [11] 92 % of control

C1CCC2(CC1)CCCCC2
inactive: dose: 5.0 mg/kg/injection, schedule: Q01DX001 (ip), vehicle: saline 97 % of control | dose: 10.0 mg/kg/injection, schedule: Q01DX001 (ip), vehicle: saline 103 % of control | dose: 20.0 mg/kg/injection, schedule: Q01DX001 (ip), vehicle: saline 93 % of control | dose: 40.0 mg/kg/injection, schedule: Q01DX001 (ip), vehicle: saline 97 % of control | dose: 80.0 mg/kg/injection, schedule: Q01DX001 (ip), vehicle: saline 100 % of control

CC(=O)N(c1ccccc1)c1nc(CCl)cs1
inactive: [9] 100 % of control | dose: 100.0 mg/kg/injection, schedule: Q01DX009 (ip), vehicle: carboxymethylcellulose (CMC) 88 % of control | dose: 100.0 mg/kg/injection, schedule: Q04DX002 (ip), vehicle: carboxymethylcellulose (CMC) 97 % of control and 100 % of control | dose: 100.0 mg/kg/injection, schedule: Q04DX003 (ip), vehicle: carboxymethylcellulose (CMC) 100 % of control | [10] 108 % of control | dose: 200.0 mg/kg/injection, schedule: Q01DX009 (ip), vehicle: carboxymethylcellulose (CMC) 98 % of control and 89 % of control | dose: 200.0 mg/kg/injection, schedule: Q04DX002 (ip), vehicle: carboxymethylcellulose (CMC) 95 % of control and 103 % of control | dose: 200.0 mg/kg/injection, schedule: Q04DX003 (ip), vehicle: carboxymethylcellulose (CMC) 102 % of control | [11] 93 % of control | dose: 400.0 mg/kg/injection, schedule: Q01DX009 (ip), vehicle: carboxymethylcellulose (CMC) 98 % of control and 103 % of control | dose: 400.0 mg/kg/injection, schedule: Q04DX002 (ip), vehicle: carboxymethylcellulose (CMC) 100 % of control and 102 % of control | dose: 400.0 mg/kg/injection, schedule: Q04DX003 (ip), vehicle: carboxymethylcellulose (CMC) 104 % of control

NNC(=O)CNc1ccc(F)cc1Br
inactive: [4] 101 % of control | [5] 101 % of control

Fc1ccc(C(c2ccc(F)cc2)C(Cl)Cl)cc1
inactive: [1] 95 % of control | [3] 97 % of control | [7] 93 % of control
